Experimental data: patent US10676438B2, “KCNQ2-5 channel activator” (Ono Pharmaceutical Co., Ltd., priority 2014, dated 2020)
In brackets after ≈: the same amount, converted by molar mass.

Key:
[1] = Solubility test (DMSO precipitation method, Pharmacopoeia of Japan elution test second solution); assay type: physicochemical; conditions: aqueous buffer, kinetic from dmso stock; Pharmacopoeia of Japan elution test second solution pH=6.8, room temperature, five hours; quantitation range 5 to 100 μM
Experimental: A calibration curve solution was prepared by diluting a test substance (10 mM DMSO solution) with acetonitrile and adding acetonitrile including an internal standard substance (candesartan) so as to be 0.1, 0.4, and 2 μM.
Sample solution was prepared as follows: 5 μL of the compound of the present invention (10 mM DMSO solution) was added to 495 μL of the Pharmacopoeia of Japan elution test second solution (pH=6.8), and the resulting mixture was stirred at room temperature for five hours. Then, the solution was placed into a solubility filter plate and subjected to suction filtration. The filtrate (20 μL) was diluted with acetonitrile, followed by adding acetonitrile including an internal standard substance ([…]).
The calibration curve and sample solutions in the amount of 5 μL were infused into LC-MS/MS (Discovery Max manufactured by Thermo Scientific) and subjected to quantitation (quantitation range: 5 to 100 μM).

Human KCNQ2/3 channel = Human KCNQ2/3 channel (Homo sapiens (Human), UniProt O43525+O43526); test: Opening action with respect to KCNQ2/3 channel by depolarization stimulation (thallium influx, FLIPR); assay type: cell-based; conditions: concentration giving 50% of maximum reaction of retigabine (10 μM); human KCNQ2/3 expression CHO-DHFR- cells; 5 mM potassium and 0.5 mM thallium; read-out: KCNQ2/3 ECrtg50
Experimental: Human KCNQ2/3 expression cells (CHO-DHFR-cells) were seeded in each well of 384 well plate (collagen-coated, black, clear bottom) at 0.5×10^4 cells/50 μL per well, and cultured in a MEM ALPHA medium (containing 10 vol % inactivated (56° C., 30 min) Fetal Bovine Serum and 100 IU/mL Penicillin—100 μg/mL Streptomycin—2 mM L-Glutamine) at 37° C. in 5% CO2 for 18 to 24 hours. The medium in the plate was removed. Then, incubation (room temperature, 60 minutes, light-shielded) was carried out in a loading buffer (prepared by the method described in the manual of FluxOR Thallium Detection Kit (Invitrogen, F10016, F10017)). KCNQ2/3 channel opening action (thallium influx into cells) by the depolarization stimulation (5 mM potassium and 0.5 mM thallium) was measured by FLIPR TETRA (Molecular Devices). The compound of the present invention had been treated five minutes before the depolarization stimulation, and the reaction induced by the depolarization stimulation was measured over time for 180 seconds. The channel opening action of the compound of the present invention was evaluated based on the change amount of the fluorescence intensity from the time before the depolarization stimulation to the time after the passage of 180 seconds. Thus, the concentration (ECrtg50) satisfying 50% of the fluorescence intensity change of maximum reaction (at the time of 10 μM-treatment) of retigabine under this experiment condition was calculated.

[2] = test system: urinary bladder extracted from rat; test: Relaxing action on urinary bladder extracted from rat (rat Magnus test); conditions: concentration at which tension change rate is -20%; carbachol 1 μM-induced contraction of rat urinary bladder strips
Experimental: Female Jcl Wistar rats (CLEA Japan, Inc., body weight in use: 170 to 200 g) were anesthetized by intraperitoneal administration of about 40 mg/kg of pentobarbital (Somnopentyl, Schering Plough Animal Health Corporation), and killed by bloodletting, followed by abdominal incision to extract the urinary bladder. Immediately, the extracted urinary bladder was immersed in ice-cooled Krebs buffer (Krebs Ringer bicarbonate buffer (Sigma-Aldlich Co.) containing sodium hydrogencarbonate (final concentration: 15 mM) and calcium chloride (final concentration: 2.5 mM)) which had been saturated with a mixed gas (95% O2, 5% CO2).
The urinary bladder bodies were cut in the longitudinal direction to prepare strip specimens (about 10×3 mm) on ice. Immediately, the prepared specimens were suspended in a Magnus tube with 500 mg of tension loaded. The tube was filled with Krebs buffer (37° C.) aerated with a mixed gas. Note here that specimens were prepared within 24 hours after extraction of the tissue.
When one hour or more had passed after the specimen was suspended, 2.5M KCl was added so that the final concentration became 100 mM, specimens showing contraction reaction were used.
Carbachol (a contraction-inducing substance) at the concentration of contraction of 1 μM was used to induce contraction. […] After the contraction reaction was stabilized, a physiological salt solution or the compound of the present invention was added in a cumulative manner from low concentration such that the final concentration became 1, 10, 100 nM, 1 and 10 μM.
The tension (mg) of the extracted urinary bladder was employed as an evaluation parameter. The tension was read by using analysis software WAVE THERMO 1000. Tension after addition of the contraction-inducing substance was set to 0%. The change rate of the tension after addition of the compound of the present invention relative to the tension after addition of the contraction-inducing substance was defined as tension change rate (%). The tension change rate (%) was adopted as an evaluation indicator. The tension change rate (%) is calculated from the following formula. Tension change rate (%)={Tension after addition of compound of the present invention and the like (mg)−Tension before addition of contraction-inducing substance (mg)}/{Tension after addition of contraction-inducing substance (mg)−Tension before addition of contraction-inducing substance (mg)}×100−100
The value at which the tension change rate (%) was −20% was calculated as IC20, and the value was adopted as an indicator of the relaxing action of the extracted urinary bladder.

hERG channel = hERG channel (Homo sapiens (Human), UniProt Q12809); test: Evaluation of action on hERG IKr current (patch-clamp); assay type: cell-based; conditions: HEK293 cell overexpressing hERG, maximum tail current, 10 minutes after application; read-out: IC50 (50% inhibitory activity of hERG channel)
Sequence of hERG channel (Q12809 whole entry): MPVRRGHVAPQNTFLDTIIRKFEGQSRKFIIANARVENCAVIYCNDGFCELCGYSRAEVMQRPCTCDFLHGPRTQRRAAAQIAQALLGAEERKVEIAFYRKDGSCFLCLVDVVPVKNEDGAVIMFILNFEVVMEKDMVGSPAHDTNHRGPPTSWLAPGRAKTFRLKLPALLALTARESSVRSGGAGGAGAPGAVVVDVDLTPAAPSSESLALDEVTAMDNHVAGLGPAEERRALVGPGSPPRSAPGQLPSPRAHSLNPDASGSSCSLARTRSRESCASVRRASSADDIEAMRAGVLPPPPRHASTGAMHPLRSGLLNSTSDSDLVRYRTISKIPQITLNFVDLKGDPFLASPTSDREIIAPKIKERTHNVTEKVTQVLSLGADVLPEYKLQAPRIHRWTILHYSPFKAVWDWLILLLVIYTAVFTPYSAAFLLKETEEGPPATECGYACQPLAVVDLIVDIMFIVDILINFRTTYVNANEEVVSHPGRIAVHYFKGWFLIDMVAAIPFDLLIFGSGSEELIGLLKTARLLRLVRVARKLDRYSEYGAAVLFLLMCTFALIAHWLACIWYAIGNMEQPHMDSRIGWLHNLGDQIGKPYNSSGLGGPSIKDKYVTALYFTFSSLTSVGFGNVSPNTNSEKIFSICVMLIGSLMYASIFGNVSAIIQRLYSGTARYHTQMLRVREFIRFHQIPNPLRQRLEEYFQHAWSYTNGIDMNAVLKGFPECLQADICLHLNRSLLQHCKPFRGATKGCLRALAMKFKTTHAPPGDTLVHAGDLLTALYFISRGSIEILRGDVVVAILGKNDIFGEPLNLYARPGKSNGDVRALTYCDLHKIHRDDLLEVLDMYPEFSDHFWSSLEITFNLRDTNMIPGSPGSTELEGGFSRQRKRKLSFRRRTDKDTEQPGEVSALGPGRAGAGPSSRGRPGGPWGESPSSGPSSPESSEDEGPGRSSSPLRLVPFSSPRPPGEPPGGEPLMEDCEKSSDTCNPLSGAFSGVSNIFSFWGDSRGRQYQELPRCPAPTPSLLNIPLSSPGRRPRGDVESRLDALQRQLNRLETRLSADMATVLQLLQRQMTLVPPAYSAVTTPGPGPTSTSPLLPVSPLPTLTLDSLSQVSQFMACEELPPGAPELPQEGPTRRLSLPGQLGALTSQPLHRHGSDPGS
Experimental: Using HEK293 cell overexpressing a human ether-a-go-go-related gene (hERG), the maximum tale current of the hERG IKr current induced by redepolarization pulse subsequent to depolarization pulse was measured by a patch-clamp method.

[3] = Evaluation of stability in human liver microsome; assay type: in vitro ADME; conditions: 5 μmol/L
Experimental: A test compound (10 mmol/L DMSO solution, 5 μL) was diluted with 50% acetonitrile aqueous solution (195 μL) to prepare 0.25 mmol/L solution.
To a reactor vessel which had been warmed to 37° C. in advance, 0.5 mg/mL of human liver microsome (Xenotech) and 245 μL of 0.1 M phosphate buffer solution (pH 7.4) including NADPH-Co-factor (BD Biosciences) were added, followed by preincubation for five minutes. Then, the above-mentioned test compound solution (5 μL) was added so as to start reaction (final concentration: 5 μmol/L). Immediately after the start, 20 μL was harvested and added to 180 μL of acetonitrile including an internal standard substance (warfarin) to stop the reaction. This solution (20 μL) was stirred with 180 μL of 50% acetonitrile aqueous solution on a plate equipped with a deproteinization filter. Then, the resulting mixture solution was subjected to suction filtration. The filtrate was adopted as a standard sample.
The above-mentioned reaction solution was incubated at 37° C. for 15 minutes, and 20 μL of the solution was added to 180 μL of cooled acetonitrile (including warfarin that is an internal standard substance) to stop the reaction. This solution (20 μL) was stirred with 180 μL of 50% acetonitrile aqueous solution on a plate equipped with a deproteinization filter, and then the resulting mixture solution was subjected to suction filtration. The filtrate was adopted as a reaction sample.
Residual rate (%) was obtained as follows: 1 μL of the sample solution was infused into LC-MS/MS (Discovery Max manufactured by Thermo Scientific), and a quotient obtained by dividing a peak area ratio of the reaction sample (peak area of test compound/peak area of internal standard substance) was divided by the peak area ratio of the standard sample was multiplied by 100.

Row | Compound | solubility at 5 h [1] [µM] | EC50 (Human KCNQ2/3 channel) [µM] | IC20 [2] [µM] | IC50 (hERG channel) [µM] | Residual rate ([3]; human, 15 min, pH 7.4) [%] | Residual rate ([3]; human liver microsome 0.5 mg/mL, NADPH, 37° C., 15 minutes) [%]
1 | C[C@](O)(c1cc(Cl)c(NC(=O)NCc2ccc(C(F)(F)F)nc2)c(Cl)c1)C(F)(F)F [Example 25 (2), 1-{2,6-dichloro-4-[(2S)-1,1,1-trifluoro-2-hydroxy-2-propanyl]phenyl}-3-{[6-(trifluoromethyl)-3-pyridinyl]methyl}urea] | 86 (≈ 41 µg/mL) | 0.3 | 0.2 | > 10 | 80 | –
2 | O=C(NCc1cnc(C(F)(F)F)s1)Nc1c(Cl)cc([C@H](O)C(F)(F)F)cc1Cl [Example 36, 1-{2,6-dichloro-4-[(1S)-2,2,2-trifluoro-1-hydroxyethyl]phenyl}-3-{[2-(trifluoromethyl)-1,3-thiazole-5-yl]methyl}urea] | 44 (≈ 20.6 µg/mL) | 0.03 | 0.01 | > 10 | 100 | –
3 | O=C(NCc1cnc(C(F)(F)F)nc1)Nc1c(Cl)cc([C@@H](O)C(F)(F)F)cc1Cl [Example 32 (3), 1-{2,6-dichloro-4-[(1R)-2,2,2-trifluoro-1-hydroxyethyl]phenyl}-3-{[2-(trifluoromethyl)-5-pyrimidinyl]methyl}urea] | 100 (≈ 46.3 µg/mL) | 0.5 | 0.1 | > 10 | 100 | –
4 | C[C@](O)(c1cc(Cl)c(NC(=O)NCc2ccc(Cl)cn2)c(Cl)c1)C(F)(F)F [Example 25 (5), 1-[(5-chloro-2-pyridinyl)methyl]-3-{2,6-dichloro-4-[(2S)-1,1,1-trifluoro-2-hydroxy-2-propanyl]phenyl}urea] | 98 (≈ 43.4 µg/mL) | – | 0.5 | > 10 | 87 | –
5 | NC(c1cc(Cl)c(NC(=O)NCc2ccc(C(F)(F)F)cn2)c(Cl)c1)C(F)(F)F (centres unmarked) [Example 79 (1), 1-[4-(1-amino-2,2,2-trifluoroethyl)-2,6-dichlorophenyl]-3-{[5-(trifluoromethyl)-2-pyridinyl]methyl}urea] | 87 (≈ 40.1 µg/mL) | 1.6 | – | > 10 | 82 | –
6 | C[C@@](O)(c1cc(Cl)c(NC(=O)NCc2ccc(C(F)(F)F)cn2)c(Cl)c1)C(F)(F)F [Example 22 (1), 1-{2,6-dichloro-4-[(2R)-1,1,1-trifluoro-2-hydroxy-2-propanyl]phenyl}-3-{[5-(trifluoromethyl)-2-pyridinyl]methyl}urea] | 77 (≈ 36.7 µg/mL) | 0.06 | 0.3 | > 10 | 100 | –
7 | O=C(NCc1ncc(C(F)(F)F)cn1)Nc1c(Cl)cc([C@@H](O)C(F)(F)F)cc1Cl [Example 32 (4), 1-{2,6-dichloro-4-[(1R)-2,2,2-trifluoro-1-hydroxyethyl]phenyl}-3-{[5-(trifluoromethyl)-2-pyrimidinyl]methyl}urea] | 77 (≈ 35.7 µg/mL) | 0.2 | 0.2 | > 10 | 100 | –
8 | C[C@](O)(c1cc(Cl)c(NC(=O)NCc2nc(C(F)(F)F)no2)c(Cl)c1)C(F)(F)F [Example 26, 1-{2,6-dichloro-4-[(2S)-1,1,1-trifluoro-2-hydroxy-2-propanyl]phenyl}-3-{[3-(trifluoromethyl)-1,2,4-oxadiazole-5-yl]methyl}urea] | 59 (≈ 27.6 µg/mL) | 0.04 | 0.2 | – | – | 64
9 | C[C@@](O)(c1cc(Cl)c(NC(=O)NCc2ccc(C(F)(F)F)nc2)c(Cl)c1)C(F)(F)F [Example 22 (3), 1-{2,6-dichloro-4-[(2R)-1,1,1-trifluoro-2-hydroxy-2-propanyl]phenyl}-3-{[6-(trifluoromethyl)-3-pyridinyl]methyl}urea] | 81 (≈ 38.6 µg/mL) | 0.2 | 0.3 | > 10 | 98 | –
10 | O=C(NCc1cnc(C(F)(F)F)s1)Nc1c(Cl)cc([C@@H](O)C(F)(F)F)cc1Cl [Example 33, 1-{2,6-dichloro-4-[(1R)-2,2,2-trifluoro-1-hydroxyethyl]phenyl}-3-{[2-(trifluoromethyl)-1,3-thiazole-5-yl]methyl}urea] | 91 (≈ 42.6 µg/mL) | 0.04 | 0.03 | > 10 | 100 | –
11 | C[C@@](O)(c1cc(Cl)c(NC(=O)NCc2ncc(C(F)(F)F)cn2)c(Cl)c1)C(F)(F)F [Example 22 (2), 1-{2,6-dichloro-4-[(2R)-1,1,1-trifluoro-2-hydroxy-2-propanyl]phenyl}-3-{[5-(trifluoromethyl)-2-pyrimidinyl]methyl}urea] | 89 (≈ 42.5 µg/mL) | 0.5 | 0.4 | > 10 | 100 | –
12 | CC(O)(c1cc(Cl)c(NC(=O)Cc2ccc(F)cc2)c(Cl)c1)C(F)(F)F (centres unmarked) [Example 50 (1), N-[2,6-dichloro-4-(1,1,1-trifluoro-2-hydroxy-2-propanyl)phenyl]-2-(4-fluorophenyl)acetamide] | 82 (≈ 33.6 µg/mL) | 0.06 | – | > 10 | 96 | –
